Patent publication US20170095522A1, “Compositions Containing Extracts of Curcuma SPP and Zingiber officinale Which Are Useful to Reduce Peripheral Inflammation and Pain” (INDENA S.p.A., priority 2015, published 2017)
Marks after values point to notes of the source that are not given here.

Tests used:
[1] = tested on: patients with grade I or II hip osteoarthritis; assay: Karnofsky Performance Scale Index in 8-month hip osteoarthritis study; assay type: in vivo, human
Procedure: The clinical end-points (WOMAC score, Karnofsky Performance Scale Index and treadmill walking performance) were evaluated for the single agents and for the combination of the two vs. a placebo. […] 100 patients with grade I or II hip osteoarthritis, confirmed by X-ray analysis, were enrolled in the study. The patients were allowed to self-medicate with NSAIDs during the 8-month trial. […] Group C received a combination of curcumin and Zingiber officinale at the same doses as reported above for the single ingredients. The last group received a corresponding placebo. To ensure clinical homogeneity, the main location of the osteoarthritis in these subjects, and the source of most of their signs and symptoms, was in one or both hips. Primary osteoarthritis in one or both hips was diagnosed by X-ray investigation. The subjects had mild to moderate pain not adequately or completely controlled with anti-inflammatory drugs. They had to be able to perform the treadmill walking test and to understand all the questions in the WOMAC questionnaire. The Karnofsky Performance Scale Index was used to classify the patients in terms of functional impairment. The Karnofsky Performance Scale Index can be used to compare the effectiveness of different treatments and to assess the prognosis in individual patients. The lower the Karnofsky score, the worse the patient's functional impairment. The variations in the results (i.e. walking distance) were considered parametric. Non-parametric observations (e.g. the WOMAC score) were evaluated with analysis of variance (ANOVA with the Bonferroni correction). Considering the possible intra-individual and inter-individual data variations, at least 40 completing subjects were needed for this type of study (at least 40 subjects who completed the entire follow-up period in each group). This numerical value was established, on the basis of our previous study, with a view to eliminating spontaneous variability and time variations. OA and its related signs/symptoms, even under conditions of relative stability, may have a spontaneous degree of variability associated with periods of improvement. Clinical variations in signs/symptoms, walking distance, oedema and the Karnofsky scale may be due to various clinical and non-clinical (i.e.

[2] = tested on: patients with grade I or II hip osteoarthritis; assay: WOMAC scores (signs/symptoms of osteoarthritis) in 8-month hip osteoarthritis study; assay type: in vivo, human
Procedure: The clinical end-points (WOMAC score, Karnofsky Performance Scale Index and treadmill walking performance) were evaluated for the single agents and for the combination of the two vs. a placebo. […] 100 patients with grade I or II hip osteoarthritis, confirmed by X-ray analysis, were enrolled in the study. The patients were allowed to self-medicate with NSAIDs during the 8-month trial. […] Group C received a combination of curcumin and Zingiber officinale at the same doses as reported above for the single ingredients. The last group received a corresponding placebo. To ensure clinical homogeneity, the main location of the osteoarthritis in these subjects, and the source of most of their signs and symptoms, was in one or both hips. Primary osteoarthritis in one or both hips was diagnosed by X-ray investigation. The subjects had mild to moderate pain not adequately or completely controlled with anti-inflammatory drugs. They had to be able to perform the treadmill walking test and to understand all the questions in the WOMAC questionnaire. The questionnaire developed by the Western Ontario and McMaster Universities was applied to describe and rate the symptoms of OA. The questionnaire produces scores for the various symptoms of OA (WOMAC scores). The status of the OA signs/symptoms was evaluated by the investigator together with the patient on inclusion, and after 1 month, 4 months and 8 months treatment. The variations in the results (i.e. walking distance) were considered parametric. Non-parametric observations (e.g. the WOMAC score) were evaluated with analysis of variance (ANOVA with the Bonferroni correction). Considering the possible intra-individual and inter-individual data variations, at least 40 completing subjects were needed for this type of study (at least 40 subjects who completed the entire follow-up period in each group). This numerical value was established, on the basis of our previous study, with a view to eliminating spontaneous variability and time variations. OA and its related signs/symptoms, even under conditions of relative stability, may have a spontaneous degree of variability associated with periods of improvement. Clinical variations in signs/symptoms, walking distance, oedema and the Karnofsky scale may be due to various clinical and non-clinical (i.e.

[3] = tested on: patients with grade I or II hip osteoarthritis; assay: Treadmill walking test, total pain-free distance; assay type: in vivo, human; settings: 3 km/hour, 10% incline
Procedure: The clinical end-points (WOMAC score, Karnofsky Performance Scale Index and treadmill walking performance) were evaluated for the single agents and for the combination of the two vs. a placebo. […] 100 patients with grade I or II hip osteoarthritis, confirmed by X-ray analysis, were enrolled in the study. The patients were allowed to self-medicate with NSAIDs during the 8-month trial. […] Group C received a combination of curcumin and Zingiber officinale at the same doses as reported above for the single ingredients. The last group received a corresponding placebo. To ensure clinical homogeneity, the main location of the osteoarthritis in these subjects, and the source of most of their signs and symptoms, was in one or both hips. Primary osteoarthritis in one or both hips was diagnosed by X-ray investigation. The subjects had mild to moderate pain not adequately or completely controlled with anti-inflammatory drugs. They had to be able to perform the treadmill walking test and to understand all the questions in the WOMAC questionnaire. […] On inclusion and after 1 month, 4 months and 8 months treatment, the patient's performance was evaluated with the treadmill test at a speed of 3 km/h and an incline of 10%. The total pain-free distance was recorded. […] Non-parametric observations (e.g. the WOMAC score) were evaluated with analysis of variance (ANOVA with the Bonferroni correction). […]

[4] = preliminary clinical trials; oral; cited from earlier work
[5] = cited from earlier work

Q: With `COc1cc(/C=C/C(=O)CC(=O)/C=C/c2ccc(O)c(OC)c2)ccc1O` [Curcumin, curcumin] as the compound, how does the “Karnofsky scale (median)” value ([1]; 1 month treatment, curcumin 1000 mg/day and/or Zingiber officinale extract 100 mg/day) read?
A: The value was 77.

Q: What about the “Karnofsky scale (median)” value ([1]; 4 months treatment, curcumin 1000 mg/day and/or Zingiber officinale extract 100 mg/day) of the same compound?
A: Its value is 80*.

Q: What about the “Karnofsky Scale scores, result in words” value ([1]; 8-month study) of the same compound?
A: Its value is “significantly improved”.

Q: And the “Karnofsky scale (median)” value ([1]; 8 months treatment, curcumin 1000 mg/day and/or Zingiber officinale extract 100 mg/day)?
A: Its value is 81*.

Q: And the “Karnofsky scale (median)” value ([1]; Inclusion (baseline), hip osteoarthritis patients)?
A: The value was 73.

Q: What about the “WOMAC Pain mean score” value ([2]; 1 month treatment) of the same compound?
A: The value was 13.

Q: What about the “WOMAC Physical functions mean score” value ([2]; 1 month treatment) of the same compound?
A: The value was 45.

Q: What about the “WOMAC Stiffness mean score” value ([2]; 1 month treatment) of the same compound?
A: The value was 5.

Q: And the “WOMAC Pain mean score” value ([2]; R = recruitment (baseline))?
A: Its value is 16.

Q: What about the “WOMAC Physical functions mean score” value ([2]; R = recruitment (baseline)) of the same compound?
A: Its value is 55.

Q: What about the “WOMAC Stiffness mean score” value ([2]; R = recruitment (baseline)) of the same compound?
A: Its value is 7.

Q: What about the “WOMAC pain scores, result in words” value ([2]; after one month's administration, p<0.05) of the same compound?
A: Its value is “fell significantly”.

Q: And the “Treadmill distance (median), total pain-free distance” value ([3]; 1 month treatment)?
A: The value was 100*.

Q: And the “Treadmill distance (median), total pain-free distance” value ([3]; R = recruitment (baseline))?
A: Its value is 77.

Q: What about the Bioavailability [4] of the same compound?
A: The Bioavailability was “low bioavailability”.

Q: And the “Solubility in water and fats” value [5]?
A: The value was “poorly soluble”.
